Measured values taken from patent publication US20240217966A1, “PHARMACEUTICAL COMPOSITION CONTAINING GLP-1 RECEPTOR AGONIST HAVING FUSED RING” (Shionogi & Co., Ltd., priority 2021, published 2024).

Biological target: T1, Human GLP-1 receptor (Homo sapiens, UniProt P43220)
T1 construct: expressed in transfected cells
Assay: Measurement of GLP-1 receptor agonist activity (cAMP assay)
Assay type: cell-based
Details: cAMP increase in GLP-1 R/CHO-K1 cells, 2 nM human GLP-1 (7-36) = 100%, DMSO only = 0%; for Emax: CHO-K1, maximum effect, read-out: Emax
Outline: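 hGLP-1R/CHO-K1 cells in HBSS with 0.1% BSA, 20 mM HEPES, 0.1 mM IBMX and 0.2 mM RO20-1724 exposed to compound plus forskolin (400 μM stock) for 1 h at 37 °C. Intracellular cAMP read by HTRF (cAMP-d2/anti-cAMP cryptate, 1 h at room temperature).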

T1 sequence (P43220 24-463): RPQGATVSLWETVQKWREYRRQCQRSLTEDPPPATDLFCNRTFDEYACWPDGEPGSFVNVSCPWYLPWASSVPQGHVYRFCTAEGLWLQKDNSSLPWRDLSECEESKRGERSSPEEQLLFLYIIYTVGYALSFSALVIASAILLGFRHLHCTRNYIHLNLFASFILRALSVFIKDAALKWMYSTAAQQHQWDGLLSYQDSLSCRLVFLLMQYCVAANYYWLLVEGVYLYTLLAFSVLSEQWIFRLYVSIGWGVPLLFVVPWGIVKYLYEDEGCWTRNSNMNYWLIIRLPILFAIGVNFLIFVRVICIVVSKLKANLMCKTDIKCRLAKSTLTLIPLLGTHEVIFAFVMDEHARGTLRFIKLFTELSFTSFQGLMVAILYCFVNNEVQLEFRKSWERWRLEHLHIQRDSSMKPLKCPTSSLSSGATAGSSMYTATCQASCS

SMILES: COc1ccc(COc2cc3c(cc2C(F)(F)F)CCN(Cc2nc4c(OC)cc(C(=O)O)cc4n2C[C@@H]2CCO2)[C@H]3C)cc1 [Compound I-224]
- Emax: 110%
- EC50: 1.41 nM

SMILES: COc1cc(C(=O)O)cc2c1nc(CN1CCc3cc(C(F)(F)F)c(OCc4ccc(Cl)cn4)cc3[C@@H]1C)n2C[C@@H]1CCO1 [Compound I-225]
- Emax: 104%
- EC50: 0.348 nM

SMILES: COc1cc(C(=O)O)cc2c1nc(CN1CCc3cc(C(F)(F)F)c(OCc4ccc(Cl)cc4)cc3[C@@H]1C)n2C[C@@H]1CCO1 [Compound I-226]
- Emax: 112%
- EC50: 0.628 nM

SMILES: COc1cc(C(=O)O)cc2c1nc(CN1CCc3cc(C(F)(F)F)c(OCc4ccc(C)cc4)cc3[C@@H]1C)n2C[C@@H]1CCO1 [Compound I-227]
- Emax: 103%
- EC50: 0.3 nM

SMILES: COc1cc(C(=O)O)cc2c1nc(CN1CCc3cc(C(F)(F)F)c(OCc4ccc(C5CC5)cc4)cc3[C@@H]1C)n2C[C@@H]1CCO1 [Compound I-228]
- Emax: 106%
- EC50: 2.41 nM

SMILES: COc1cc(Cl)ccc1COc1cc2c(cc1C(F)(F)F)CCN(Cc1nc3c(OC)cc(C(=O)O)cc3n1C[C@@H]1CCO1)[C@H]2C [Compound I-229]
- Emax: 105%
- EC50: 0.0656 nM

SMILES: COc1cc(C(=O)O)cc2c1nc(CN1CCc3cc(C(F)(F)F)c(OCc4ccccc4Cl)cc3[C@@H]1C)n2C[C@@H]1CCO1 [Compound I-230]
- Emax: 109%
- EC50: 0.693 nM

SMILES: COc1cc(C(=O)O)cc2c1nc(CN1CCc3cc(C(F)(F)F)c(OCc4ccc(F)cc4F)cc3[C@@H]1C)n2C[C@@H]1CCO1 [Compound I-231]
- Emax: 106%
- EC50: 0.282 nM

SMILES: COc1cc(C(=O)O)cc2c1nc(CN1CCc3cc(C(F)(F)F)c(OCc4ccc(Cl)cc4Cl)cc3[C@@H]1C)n2C[C@@H]1CCO1 [Compound I-232]
- Emax: 117%
- EC50: 0.223 nM

SMILES: COc1cc(C(=O)O)cc2c1nc(CN1CCc3cc(C(F)(F)F)c(OCc4ccc(OC(F)F)cc4F)cc3[C@@H]1C)n2C[C@@H]1CCO1 [Compound I-233]
- Emax: 97.7%
- EC50: 1.29 nM

SMILES: COc1cc(C(=O)O)cc2c1nc(CN1CCc3cc(C(F)(F)F)c(OCc4cc(F)c(Cl)cc4F)cc3[C@@H]1C)n2C[C@@H]1CCO1 [Compound I-234]
- Emax: 109%
- EC50: 0.354 nM

SMILES: COc1cc(C(=O)O)cc2c1nc(CN1CCc3cc(C(F)(F)F)c(OCc4ccc(C#N)cc4F)cc3[C@@H]1C)n2C[C@@H]1CCO1 [Compound I-235]
- Emax: 102%
- EC50: 0.378 nM

SMILES: COc1cc(C(=O)O)cc2c1nc(CN1CCc3cc(C(F)(F)F)c(OCc4ccc(F)cc4)cc3[C@@H]1C)n2C[C@@H]1CCO1 [Compound I-236]
- Emax: 106%
- EC50: 0.429 nM

SMILES: COc1cc(C(=O)O)cc2c1nc(CN1CCc3cc(C(F)(F)F)c(OCc4c(F)cc(Cl)cc4F)cc3[C@@H]1C)n2C[C@@H]1CCO1 [Compound I-237]
- Emax: 102%
- EC50: 0.103 nM

SMILES: COc1cc(C(=O)O)cc2c1nc(CN1CCc3cc(C(F)(F)F)c(OCc4c(F)cc(F)cc4F)cc3[C@@H]1C)n2C[C@@H]1CCO1 [Compound I-238]
- Emax: 106%
- EC50: 0.36 nM

SMILES: C[C@H]1c2nc(OCc3ccc(Cl)cc3)c(C(F)(F)F)cc2CCN1Cc1nc2c(F)cc(C(=O)O)cc2n1C[C@@H]1CCO1 [Compound I-239]
- Emax: 95.3%
- EC50: 0.0882 nM

SMILES: C[C@H]1c2nc(OCc3ccc(C#N)cc3F)c(C(F)(F)F)cc2CCN1Cc1nc2ccc(C(=O)O)c(F)c2n1C[C@@H]1CCO1 [Compound I-240]
- Emax: 122%
- EC50: 0.0648 nM

SMILES: C[C@H]1c2nc(OCc3ccc(C#N)cc3F)c(C(F)(F)F)cc2CCN1Cc1nc2c(F)cc(C(=O)O)cc2n1C[C@@H]1CCO1 [Compound I-241]
- Emax: 125%
- EC50: 0.0302 nM

SMILES: COc1cc(C(=O)O)cc2c1nc(CN1CCc3cc(C(F)(F)F)c(OCc4ccc(C#N)cc4F)nc3[C@@H]1C)n2C[C@@H]1CCO1 [Compound I-242]
- Emax: 116%
- EC50: 0.0124 nM

SMILES: C[C@H]1c2nc(OCc3ccc(Cl)cc3Cl)c(C(F)(F)F)cc2CCN1Cc1nc2ccc(C(=O)O)c(F)c2n1C[C@@H]1CCO1 [Compound I-243]
- Emax: 111%
- EC50: 0.0556 nM

SMILES: C[C@H]1c2nc(OCc3ccc(Cl)cc3Cl)c(C(F)(F)F)cc2CCN1Cc1nc2c(F)cc(C(=O)O)cc2n1C[C@@H]1CCO1 [Compound I-244]
- Emax: 123%
- EC50: 0.0394 nM

SMILES: C[C@H]1c2nc(OCc3cc(F)c(Cl)cc3F)c(C(F)(F)F)cc2CCN1Cc1nc2ccc(C(=O)O)c(F)c2n1C[C@@H]1CCO1 [Compound I-245]
- Emax: 109%
- EC50: 0.0605 nM

SMILES: C[C@H]1c2nc(OCc3cc(F)c(Cl)cc3F)c(C(F)(F)F)cc2CCN1Cc1nc2c(F)cc(C(=O)O)cc2n1C[C@@H]1CCO1 [Compound I-246]
- Emax: 120%
- EC50: 0.0264 nM

SMILES: C[C@H]1c2nc(OCc3ccc(Cl)cn3)c(C(F)(F)F)cc2CCN1Cc1nc2ccc(C(=O)O)cc2n1C[C@@H]1CCO1 [Compound I-247]
- Emax: 121%
- EC50: 0.351 nM

SMILES: Cc1csc(COc2nc3c(cc2C(F)(F)F)CCN(Cc2nc4ccc(C(=O)O)cc4n2C[C@@H]2CCO2)[C@H]3C)n1 [Compound I-248]
- Emax: 124%
- EC50: 0.902 nM

SMILES: C[C@H]1c2nc(OCc3ccc(Cl)cc3)c(C(F)(F)F)cc2CCN1Cc1nc2ccc(C(=O)O)cc2n1C[C@@H]1CCO1 [Compound I-249]
- Emax: 145%
- EC50: 0.13 nM

SMILES: Cc1ccc(COc2nc3c(cc2C(F)(F)F)CCN(Cc2nc4ccc(C(=O)O)cc4n2C[C@@H]2CCO2)[C@H]3C)cc1 [Compound I-250]
- Emax: 121%
- EC50: 0.164 nM

SMILES: C[C@H]1c2nc(OCc3ccc(C4CC4)cc3)c(C(F)(F)F)cc2CCN1Cc1nc2ccc(C(=O)O)cc2n1C[C@@H]1CCO1 [Compound I-251]
- Emax: 120%
- EC50: 0.807 nM

SMILES: COc1cc(Cl)ccc1COc1nc2c(cc1C(F)(F)F)CCN(Cc1nc3ccc(C(=O)O)cc3n1C[C@@H]1CCO1)[C@H]2C [Compound I-252]
- Emax: 125%
- EC50: 0.0798 nM

SMILES: C[C@H]1c2nc(OCc3ccccc3Cl)c(C(F)(F)F)cc2CCN1Cc1nc2ccc(C(=O)O)cc2n1C[C@@H]1CCO1 [Compound I-253]
- Emax: 119%
- EC50: 0.366 nM

SMILES: C[C@H]1c2nc(OCc3ccc(F)cc3F)c(C(F)(F)F)cc2CCN1Cc1nc2ccc(C(=O)O)cc2n1C[C@@H]1CCO1 [Compound I-254]
- Emax: 126%
- EC50: 0.177 nM

SMILES: C[C@H]1c2nc(OCc3ccc(Cl)cc3Cl)c(C(F)(F)F)cc2CCN1Cc1nc2ccc(C(=O)O)cc2n1C[C@@H]1CCO1 [Compound I-255]
- Emax: 122%
- EC50: 0.102 nM

SMILES: C[C@H]1c2nc(OCc3ccc(OC(F)F)cc3F)c(C(F)(F)F)cc2CCN1Cc1nc2ccc(C(=O)O)cc2n1C[C@@H]1CCO1 [Compound I-256]
- Emax: 119%
- EC50: 0.389 nM

SMILES: C[C@H]1c2nc(OCc3cc(F)c(Cl)cc3F)c(C(F)(F)F)cc2CCN1Cc1nc2ccc(C(=O)O)cc2n1C[C@@H]1CCO1 [Compound I-257]
- Emax: 115%
- EC50: 0.0747 nM

SMILES: C[C@H]1c2nc(OCc3ccc(C#N)cc3F)c(C(F)(F)F)cc2CCN1Cc1nc2ccc(C(=O)O)cc2n1C[C@@H]1CCO1 [Compound I-258]
- Emax: 107%
- EC50: 0.0911 nM

SMILES: C[C@H]1c2nc(OCc3c(F)cc(Cl)cc3F)c(C(F)(F)F)cc2CCN1Cc1nc2ccc(C(=O)O)cc2n1C[C@@H]1CCO1 [Compound I-259]
- Emax: 134%
- EC50: 0.104 nM

SMILES: C[C@H]1c2nc(OCc3c(F)cc(F)cc3F)c(C(F)(F)F)cc2CCN1Cc1nc2ccc(C(=O)O)cc2n1C[C@@H]1CCO1 [Compound I-260]
- Emax: 115%
- EC50: 0.128 nM

SMILES: C[C@H]1c2cc(OCc3ccc(Cl)cc3F)c(C(F)F)cc2CCN1Cc1nc2ccc(C(=O)O)cc2n1C[C@@H]1CCO1 [Compound I-261]
- Emax: 105%
- EC50: 1.27 nM

SMILES: COc1ccc(COc2nc3c(cc2C(F)(F)F)CCN(Cc2nc4ccc(C(=O)O)cc4n2C[C@@H]2CCO2)C3)cc1 [Compound I-262]
- Emax: 109%
- EC50: 4.47 nM

SMILES: O=C(O)c1ccc2nc(CN3CCc4cc(C(F)(F)F)c(OCc5ccc(Cl)cn5)nc4C3)n(C[C@@H]3CCO3)c2c1 [Compound I-263]
- Emax: 105%
- EC50: 8.8 nM

SMILES: O=C(O)c1ccc2nc(CN3CCc4cc(C(F)(F)F)c(OCc5ccc(Cl)cc5)nc4C3)n(C[C@@H]3CCO3)c2c1 [Compound I-264]
- Emax: 121%
- EC50: 2.36 nM

SMILES: Cc1ccc(COc2nc3c(cc2C(F)(F)F)CCN(Cc2nc4ccc(C(=O)O)cc4n2C[C@@H]2CCO2)C3)cc1 [Compound I-265]
- Emax: 100%
- EC50: 3.18 nM

SMILES: O=C(O)c1ccc2nc(CN3CCc4cc(C(F)(F)F)c(OCc5ccc(C6CC6)cc5)nc4C3)n(C[C@@H]3CCO3)c2c1 [Compound I-266]
- Emax: 111%
- EC50: 4.04 nM

SMILES: COc1cc(Cl)ccc1COc1nc2c(cc1C(F)(F)F)CCN(Cc1nc3ccc(C(=O)O)cc3n1C[C@@H]1CCO1)C2 [Compound I-267]
- Emax: 112%
- EC50: 0.861 nM

SMILES: O=C(O)c1ccc2nc(CN3CCc4cc(C(F)(F)F)c(OCc5ccc(F)cc5F)nc4C3)n(C[C@@H]3CCO3)c2c1 [Compound I-268]
- Emax: 108%
- EC50: 1.97 nM

SMILES: O=C(O)c1ccc2nc(CN3CCc4cc(C(F)(F)F)c(OCc5ccc(Cl)cc5Cl)nc4C3)n(C[C@@H]3CCO3)c2c1 [Compound I-269]
- Emax: 109%
- EC50: 1.16 nM

SMILES: O=C(O)c1ccc2nc(CN3CCc4cc(C(F)(F)F)c(OCc5ccc(OC(F)F)cc5F)nc4C3)n(C[C@@H]3CCO3)c2c1 [Compound I-270]
- Emax: 116%
- EC50: 0.69 nM

SMILES: N#Cc1ccc(COc2nc3c(cc2C(F)(F)F)CCN(Cc2nc4ccc(C(=O)O)cc4n2C[C@@H]2CCO2)C3)c(F)c1 [Compound I-271]
- Emax: 118%
- EC50: 1.66 nM

SMILES: O=C(O)c1ccc2nc(CN3CCc4cc(C(F)(F)F)c(OCc5ccc(F)cc5)nc4C3)n(C[C@@H]3CCO3)c2c1 [Compound I-272]
- Emax: 107%
- EC50: 3.94 nM
